Data on 3 molecules can be found in US20260355168A1, “COMPOSITIONS AND METHODS FOR TREATING AND DETECTING CANCER” (CASE WESTERN RESERVE UNIVERSITY, priority 2022, published 2026).

The test system of one data set is Gli36 cells. Description: Gli36 scratch wound healing assay. The data set is classed as cell-based, human. The settings on record: 100 μM; for Effect on Gli36 migration (scratch wound closure): endpoint 8 h, in words. The procedure:
FIGS. 4(A-D) illustrate a histogram and images showing the results of the Gli36 scratch wound assays. Selected inhibitors, activators, and control compounds identified in LN229 and/or U87 scratch wound closure assays were retested at 100 μM for effects on Gli36 migration. A. Histogram showing the normalized migration distance for each treated sample. Data is presented as average % movement±s.e.m, and compound bar codes are shown on the x-axis. The majority of compounds were screened with an n of 2-4. Representative endpoint images of samples treated with DMSO (B) and two priority inhibitors (C and D) are shown. The relative migration distances for each example are shown.
Cells were seeded at a density of 2.7×10^4 cells per well into the internal wells of Incuyte1 Imagelock 96-well plates (Essen BioScience Inc., Ann Arbor, MI) and cultured overnight to form monolayers. Monolayers were wounded with an IncuCyte1 96-well Woundmaker Tool per the manufacturer's instructions. The outer wells were filled with PBS to buffer edge effects, and then the wounded monolayers were cultured in 100 μl of fresh media with compounds or DMSO (2×replicates at 100 μM or 1%, respectively) at 37 °C and 5% CO2. Images were captured every 4 hrs. using an Incucyte live cell imaging system equipped with the Scratch Wound Module. Scratch wound widths were calculated, per the manufacturer's instructions, at TO and at endpoint (typically T12 for LN229 and U87 cells and T8 for Gli36), which was taken as the last timepoint before wound closure. The cell migration distance was calculated from scratch widths [(T0Width−TendpointWidth)/2] and normalized to the average distance migrated by the DMSO controls. Values are presented as average percentages±standard errors of the means (s.e.m.). The majority of compounds were screened with an n of two, but the n for priority hits ranges from 2-6.
All inhibitors identified in the primary screens, a selection of U87-specific activators, and some apparently inert control compounds were rescreened in scratch wound assays using an additional glioma cell line (Gli36) (FIG. 4A).

Another data set deals with PTPμ (Homo sapiens, UniProt P28827). Put plainly: PTPμ-dependent Sf9 aggregation assay. The data set is classed as cell-based. The settings on record: 100 μM; 20 min pretreatment; in words.
The test system of data set [1] is LN229 cells. Description: Helix Blue staining of LN229 spheres (cell survival). The settings on record: 100 μM, 24 h, qualitative. The class given is cell-based, human. The procedure:
FIG. 17 illustrates images showing the effects of prioritized inhibitors on cell survival. LN229 cells were plated onto non-adherent surfaces and cultured in the presence of the indicated compounds (100 μM). On day 1, spheres were stained with Helix Blue to detect dying cells. Parental Sf9 cells (which lack PTPμ) plated onto tissue culture plastic were also grown in the presence of the indicated compounds and, on day 1, stained with Helix Blue. Three compounds appeared to cause a qualitative increase in staining in LN229 spheres. No compound was toxic to Sf9 cells.
LN229 cells, plated onto non-adherent surfaces as described above, and parental Sf9 cells (without PTPμ), seeded into 96-well flat bottom tissue culture plates, were treated for 24 h with the indicated compounds (100 μM). The cells and spheres were then treated with 5.5 μM Helix Blue (Biolegend, San Diego, CA) and imaged at 10× on a Leica CTR6500 fluorescence microscope.
The seven penetrant inhibitors were tested to see if they affected the survival of LN229 spheres and parental Sf9 cells (which lack PTPμ) (FIG. 17).

In data set [2] the test system is LN229 cells. Put plainly: LN229 glioma sphere formation and growth assay. The class given is cell-based, human. The settings on record: for Effect on LN229 sphere formation: day 1; for Effect on LN229 sphere formation / Effect on LN229 sphere growth: in words. As to the method:
FIGS. 5(A-E) illustrate a histogram and images showing the results of the LN229 sphere formation and growth assays. Selected inhibitors, activators, and control compounds identified in LN229 and/or U87 scratch wound closure assays were retested at 100 μM in a secondary assay for glioma cell (LN229) sphere formation and growth. A. Histogram showing the effects of the indicated compounds on sphere formation. On day 1, sphere footprint areas were determined and normalized to the average footprint area of the unblinded vehicle-treated controls. On day 1, a larger footprint area indicates inhibition of aggregation. B. Histogram showing the effects of the indicated compounds on sphere growth. On day 7, the changes in sphere footprint areas were calculated and normalized to the average size change of the unblinded vehicle-treated controls. On day 7, a smaller value indicates reduced growth. […] Data is presented as percentages±s.e.m. of 2-4 replicates. Representative images of samples treated with DMSO (C) and two priority inhibitors (D and E) are shown. Relative day 1 footprint areas and day 7 growth measurements are indicated for each example.
FIGS. 15(A-D) illustrate a histogram and images of titration of selected compounds on LN229 sphere formation and growth. LN229 cells were plated onto non-adherent surfaces and treated with the indicated compounds at 100, 50, and 25 μM. A. On day 1, sphere footprint areas were determined and normalized to the average footprint area of the unblinded vehicle-treated controls. On day 1, a larger foot-print area indicates inhibition of aggregation. B. On day 7, the changes in sphere footprint areas were calculated and normalized to the average size change of the unblinded vehicle-treated controls. On day 7, a smaller value indicates reduced growth. […] Data is presented as percentages±s.e.m. The initial test at 100 μM and the follow-up at that dose with titration is shown. Each bar is the average of 2 replicates. Representative day 1 (C) and day 7 (D) images of samples treated with two priority inhibitors are shown. Relative day 1 sphere footprint areas and day 7 growth for each example are indicated.
Cells were seeded at a density of 7500 cells per well into the internal wells of 96-well plates coated with 0.75% (wt/vol) PVA as previously described. Compounds were added (2×replicates per treatment) at the indicated final concentrations, and control wells were treated with matching concentrations of DMSO. The external wells of the plates were filled with PBS to buffer against edge effects, and the cells were incubated at 37 °C and 5% CO2 for 7 days. A Leica CTR6500 microscope fitted with an automated stage was used to capture brightfield images on day 1 and day 7, and sphere footprint areas were measured using Image J (v1.52a http://imagej.nih.gov/ij) as previously described. To quantify the effects of the compounds on day 1, the footprint areas of the treated wells were normalized to the average area of the matched DMSO control wells. To quantify the effects of the compounds on sphere growth, the change in the sphere footprint areas was calculated ([…]) and then normalized to the average size change of the matched DMSO samples. All values are presented as average percentages±s.e.m.
We tested the effects of twenty-four compounds (11 flagged as inhibitory, 4 as stimulatory, and nine as inert in the initial scratch-wound screen, FIG. 2) on the ability of LN229 cells to mediate cell-cell adhesion and grow in 3D culture on non-adherent surfaces. To quantify sphere formation (FIG. 5A), the footprint areas of aggregates were measured on day 1 and normalized to that of the DMSO control. At this time point, a larger footprint size (>120%) indicates inhibition, i.e., the failure of cells to form a compact aggregate. To quantify sphere growth (FIG. 5B), we calculated the percent changes in sphere footprint areas between day 1 and day 7 and normalized them to that of the DMSO controls.

SMILES strings stand for the structures. Entries after “also recorded” stand apart in the source; their conditions may differ.

PTPμ, sequence (P28827 21-1452): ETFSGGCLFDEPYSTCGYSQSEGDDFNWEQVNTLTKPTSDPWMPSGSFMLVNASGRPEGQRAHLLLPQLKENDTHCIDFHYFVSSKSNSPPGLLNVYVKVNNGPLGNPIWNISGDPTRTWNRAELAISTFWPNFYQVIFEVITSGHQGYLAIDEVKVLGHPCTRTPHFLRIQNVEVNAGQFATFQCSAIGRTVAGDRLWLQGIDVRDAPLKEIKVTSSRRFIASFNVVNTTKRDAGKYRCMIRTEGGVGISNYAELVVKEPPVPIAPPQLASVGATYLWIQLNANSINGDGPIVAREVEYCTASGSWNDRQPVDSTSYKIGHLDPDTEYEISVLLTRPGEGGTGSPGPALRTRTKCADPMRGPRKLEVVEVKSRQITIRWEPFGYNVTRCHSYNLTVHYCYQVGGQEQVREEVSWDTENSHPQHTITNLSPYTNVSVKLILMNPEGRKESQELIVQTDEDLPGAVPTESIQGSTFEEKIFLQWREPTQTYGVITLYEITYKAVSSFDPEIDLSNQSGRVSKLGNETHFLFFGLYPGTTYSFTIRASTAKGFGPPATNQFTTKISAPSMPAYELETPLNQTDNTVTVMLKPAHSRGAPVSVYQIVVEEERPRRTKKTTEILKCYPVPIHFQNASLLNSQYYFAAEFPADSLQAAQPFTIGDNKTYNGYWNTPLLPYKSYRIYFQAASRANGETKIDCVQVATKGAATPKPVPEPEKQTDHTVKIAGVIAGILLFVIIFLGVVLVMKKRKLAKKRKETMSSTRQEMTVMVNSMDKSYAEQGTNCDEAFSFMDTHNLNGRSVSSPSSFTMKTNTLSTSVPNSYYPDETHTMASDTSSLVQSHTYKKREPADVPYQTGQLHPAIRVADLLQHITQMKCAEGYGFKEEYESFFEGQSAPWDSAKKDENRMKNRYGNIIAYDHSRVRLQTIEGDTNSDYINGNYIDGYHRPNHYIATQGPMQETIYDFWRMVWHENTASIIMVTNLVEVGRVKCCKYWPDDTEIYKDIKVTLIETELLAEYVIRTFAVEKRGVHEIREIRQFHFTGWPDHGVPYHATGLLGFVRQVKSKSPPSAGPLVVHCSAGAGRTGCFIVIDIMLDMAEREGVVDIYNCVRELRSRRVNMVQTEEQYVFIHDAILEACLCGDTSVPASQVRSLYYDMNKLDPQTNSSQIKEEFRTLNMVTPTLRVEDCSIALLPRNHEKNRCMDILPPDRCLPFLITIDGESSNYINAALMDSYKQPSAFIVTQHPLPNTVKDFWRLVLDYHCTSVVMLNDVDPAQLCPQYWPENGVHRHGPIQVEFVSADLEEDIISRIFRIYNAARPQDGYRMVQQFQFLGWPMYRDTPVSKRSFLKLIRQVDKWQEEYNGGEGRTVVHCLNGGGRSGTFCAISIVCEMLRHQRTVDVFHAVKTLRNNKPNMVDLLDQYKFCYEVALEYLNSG

With `O=C(NCc1nc(-c2ccncc2)no1)c1ccc(Cl)c(S(=O)(=O)NCc2ccccc2)c1` [Compound 247678791], in the data set on Gli36 cells, the “Effect on Gli36 cell morphology in scratch assay” value (“Effect on Gli36 cell morphology” below) was “did not dramatically affect Gli36 cell morphology” and the “Effect on Gli36 migration (scratch wound closure)” value is reported as “moderate inhibitor”. The “Effect on PTPμ-dependent Sf9 aggregation / adhesion” value at PTPμ is “PTPμ-dependent adhesion; also recorded: inhibitors; also recorded: fewer/smaller aggregates; also recorded: affect PTPμ-mediated aggregation”. The “Effect on LN229 cell survival / cell death” value with LN229 cells [1] was “did not affect LN229 survival”. Moreover, the “Effect on LN229 sphere formation” value in the data set with LN229 cells [2] (50 μM) was “slowed aggregation at 100 and 50 μM”. The “Effect on LN229 sphere formation” value in the data set with LN229 cells [2] (100 μM) was “aggregated more slowly than controls; also recorded: slowed aggregation at 100 and 50 μM”. Besides, the “Effect on LN229 sphere growth” value in the data set with LN229 cells [2] (100 μM, day 7) is reported as “grew poorly in 3D culture”. In addition, the sphere growth relative to control at 100 µM in the data set with LN229 cells [2] (Homo sapiens, LN-229, 168 h, read-out: LN229 sphere growth relative to control (threshold for inhibition), heading: LN229 sphere growth relative to control, 100 μM, day 7) was < 60%.
As to `CCN(C(=O)CN1C(=O)NC(C)(CCC(C)C)C1=O)c1cccc2ccccc12` (centres unmarked) [Compound 247677616], the “Effect on Gli36 cell morphology” value with Gli36 cells was “dramatic effect on Gli36 cell morphology”. The “Effect on PTPμ-dependent Sf9 aggregation / adhesion” value on PTPμ is recorded as “not shown to affect PTPμ-mediated aggregation; also recorded: did not affect PTPμ-dependent adhesion”. Besides, the “Effect on LN229 cell survival / cell death” value with LN229 cells [1] was “caused a qualitative increase in LN229-cell death; also recorded: causing LN229 cell death”. Further, the “Effect on LN229 sphere formation” value in the data set on LN229 cells [2] (100 μM) is “completely blocked sphere formation”.
In the case of `COc1cc(C)ccc1OCC(=O)Nc1nc(-c2c[nH]c(C(N)=O)c2)cs1` [Compound 247678835], in the data set on Gli36 cells, the “Effect on Gli36 cell morphology” value was “reduced the appearance of processes and cell chains at the scratch edge”; the “Effect on Gli36 migration (scratch wound closure)” value is recorded as “strong priority inhibitor”. Further, the “Effect on PTPμ-dependent Sf9 aggregation / adhesion” value at PTPμ is “PTPμ-dependent adhesion; also recorded: inhibitors; also recorded: fewer/smaller aggregates; also recorded: strongest pan-inhibitor to affect PTPμ-dependent aggregation; also recorded: affect PTPμ-mediated aggregation”. For the same molecule, the “Effect on LN229 cell survival / cell death” value in the data set with LN229 cells [1] is “caused a qualitative increase in LN229-cell death; also recorded: induced LN229-cell death in vitro; also recorded: affect the survival of LN229 cells”. Besides, the “Effect on LN229 sphere formation” value in the data set with LN229 cells [2] (50 μM) is given as “condensation was slowed”. For the same molecule, the “Effect on LN229 sphere growth” value with LN229 cells [2] (50 μM, day 7) is “grew poorly in culture”. The “Effect on LN229 sphere formation” value with LN229 cells [2] (100 μM) is “failed to compact and formed a mat of cells at the bottom of the well; also recorded: dramatically disrupted sphere formation at 100 μM”. Also, the minimal effective concentration with LN229 cells [2] (Homo sapiens, LN-229, titration 100, 50, 25 μM, read-out: Lowest dose effective at inhibiting LN229 sphere growth) is 50 µM.
